US20170304288A1, “Formulations of Methionine Aminopeptidase Inhibitors for Treating Infectious Diseases” (Texas Southern University, priority 2013, published 2017)
Where two headings read alike, the source gives them in different places. Marks after values point to notes of the source that are not given here.

How the values were obtained:
[1] = Stability of co-solvent formulations at storage temperatures; format: physicochemical; conditions: stored at −20° C., 4° C. and 25° C.; Day 3, 7, 14 and 30
Experimental: The stability of the optimal co-solvent formulations was investigated at various storage temperatures. Briefly, aliquots of the optimal co-solvent formulations were stored at different temperatures (−20° C., 4° C. and 25° C.) and analyzed using LC/MS/MS on Day 3, 7, 14 and 30 to determine the amount of compound 5 remaining. The experiment was conducted in triplicates. […] The optimal co-solvent formulations were applied to the pharmacokinetic study of compound 5 in rats (Table 18).

E. faecalis OG1RF = test: Liquid-based C. elegans infection model, survival; format: in vivo, Enterococcus faecalis
[2] = Pharmacokinetic study in male Sprague Dawley rats; format: in vivo; conditions: rat; for Cmax / clearance / bioavailability / half-life / Vd: male, Sprague Dawley, plasma; for bioavailability: read-out: Fabs (absolute bioavailability); for Vd: read-out: VD (volume of distribution)
Text: Pharmacokinetic evaluation elucidates the fate of compound 5 in living systems. The pharmacokinetic study of compound 5 was also a means to verify the applicability of the LC-MS/MS assay method and the formulations. An adult male Sprague Dawley rat model was the preferred biological system for this experiment based on the similarity to humans in metabolism and minimal interference of hormones with metabolism. Briefly, male Sprague Dawley rats (n=4 for IV group, n=3 for subcutaneous and oral groups each, body weight: 300-350 g) were cannulated through the jugular vein under anesthesia (using a cocktail of ketamine: acepromazine: xylazine at a ratio of 50: 3.3: 3.3 mg/kg). On the following day, the optimal IV co-solvent formulation was diluted five times with normal saline to 1 mg/mL. The formulation for subcutaneous and oral administration was diluted with equal amount of normal saline to 3.75 mg/mL. Each rat was administered a 2 mg/kg IV bolus dose, 10 mg/kg subcutaneous dose or 20 mg/kg oral dose of compound 5. Heparinized blood samples were withdrawn from each rat at 5, 10, 15, 30 mins, 1, 2, 4, 6, 8, 12, 24, 48, 72, 96, 144 h after injection. The blood samples were centrifuged at 14,000 rpm for 6 min and the supernatant plasma obtained and stored at −80° C. until LC-MS/MS analysis for the concentration of compound 5. Urine samples were also collected at 0, 4, 8, 12, and 24 h. The plasma and urine samples were analyzed (within 7 days) using the developed LC/MS/MS method to determine the concentration of compound 5. FIG. 19A-D show plots of the plasma concentration of compound 5 against time.
The pharmacokinetic parameters for each rat were determined with Phoenix WinNonlin 6.3 software (Pharsight Corporation, Mountain View, Calif., USA) a non-compartmental analysis and a two compartment, which best described the fit for the IV bolus administration of compound 5, based on the observed and predicted fits of the plasma concentration versus time plot, the reduction in the sums of squares, and the Akaike's information criterion (AIC) for comparing compartmental models (5).
The weighting scheme of concentration^−2 (Y^−2) was used to determine the model that best fits the individual profiles. […] The plasma concentration -time profiling following 20 mg/Kg oral and 10 mg/kg subcutaneous doses of compound 5 is shown in FIG. 22C.

[3] = iv, 2 mg/kg, Intravenous (Dose: 2 mg/kg), non-compartmental analysis
[4] = iv, 2 mg/kg, Intravenous (Dose: 2 mg/kg), two compartment model
[5] = po, 20 mg/kg, Oral (Dose: 20 mg/kg), non-compartmental analysis
[6] = sc, 10 mg/kg, Subcutaneous (Dose: 10 mg/kg), non-compartmental analysis
[7] = Intravenous (Dose: 2 mg/kg), two compartment model
[8] = Oral (Dose: 20 mg/kg), non-compartmental analysis
[9] = Oral (Dose: 20 mg/kg), two compartment model
[10] = Subcutaneous (Dose: 10 mg/kg), non-compartmental analysis
[11] = Subcutaneous (Dose: 10 mg/kg), two compartment model

For Oc1c(Br)cc(Cl)c2cccnc12 [Compound 5, 7-bromo-5-chloroquinolin-8-ol], the “stability in the optimal co-solvent formulations” value [1] was “stable in the co-solvent formulations for up to one month”, the “survival of the nematodes at Maximum protective concentration” value (E. faecalis OG1RF; 4×10^−4 μg/mL) was roughly 80% and the “survival of infected animals compared to tetracycline” value (E. faecalis OG1RF; 4×10^−5 μg/mL to 4×10^−4 μg/mL) was “survived just as well, or better, than animals treated with tetracycline”. For the same compound, the “MPC (Minimum Protective Concentration) OG1RF” value (E. faecalis OG1RF; C. elegans) was 4e-11 µg/mL, the “MmaxPC (Maximum Protective Concentration) OG1RF” value (E. faecalis OG1RF; C. elegans) was 0.0004 µg/mL and the Cmax [2, 3] was 2560 ± 480 ng/mL. The clearance ([2]; iv, 2 mg/kg, Intravenous (Dose: 2 mg/kg), non-compartmental analysis, read-out: Cl- (total body clearance) (converted)) was 1.67 mL/min/kg, the bioavailability [2, 3] was 100% and the half-life ([2]; iv, 2 mg/kg, Intravenous (Dose: 2 mg/kg), non-compartmental analysis, read-out: T1/2 (elimination half-life) (converted)) was 176 ± 30.5 h. For the same compound, the Vd [2, 3] was 24.6 ± 1.19 L/kg, the Cmax [2, 4] was 2600 ± 560 ng/mL and the clearance ([2]; iv, 2 mg/kg, Intravenous (Dose: 2 mg/kg), two compartment model, read-out: Cl (total body clearance) (converted)) was 2.17 mL/min/kg. The half-life ([2]; iv, 2 mg/kg, Intravenous (Dose: 2 mg/kg), two compartment model, read-out: T1/2α (distribution half-life) (converted)) was 0.19 ± 0.02 h, the half-life ([2]; iv, 2 mg/kg, Intravenous (Dose: 2 mg/kg), two compartment model, read-out: T1/2β (elimination half-life) (converted)) was 109 ± 19.4 h and the Vd [2, 4] was 21.6 ± 1.32 L/kg. It also gave a Cmax [2, 5] of 1730 ± 380 ng/mL, a bioavailability [2, 5] of 4.6% and a half-life ([2]; po, 20 mg/kg, Oral (Dose: 20 mg/kg), non-compartmental analysis, read-out: T1/2 (elimination half-life) (converted)) of 8.21 h. It also gave a Cmax ([2]; po, 20 mg/kg, Oral (Dose: 20 mg/kg), two compartment model) of 1670 ± 600 ng/mL, a half-life ([2]; po, 20 mg/kg, Oral (Dose: 20 mg/kg), two compartment model, read-out: T1/2abs (absorption half-life) (converted)) of 0.14 ± 0.02 h and a half-life ([2]; po, 20 mg/kg, Oral (Dose: 20 mg/kg), two compartment model, read-out: T1/2α (distribution half-life) (converted)) of 0.33 ± 0.01 h. For the same compound, the half-life ([2]; po, 20 mg/kg, Oral (Dose: 20 mg/kg), two compartment model, read-out: T1/2β (elimination half-life) (converted)) was 7.05 ± 1.88 h, the Cmax [2, 6] was 910 ± 70 ng/mL and the bioavailability [2, 6] was 15.7%. The half-life ([2]; sc, 10 mg/kg, Subcutaneous (Dose: 10 mg/kg), non-compartmental analysis, read-out: T1/2 (elimination half-life) (converted)) was 36.8 ± 2.87 h, the Cmax ([2]; sc, 10 mg/kg, Subcutaneous (Dose: 10 mg/kg), two compartment model) was 970 ± 50 ng/mL and the half-life ([2]; sc, 10 mg/kg, Subcutaneous (Dose: 10 mg/kg), two compartment model, read-out: T1/2abs (absorption half-life) (converted)) was 0.376 ± 0.01 h. The half-life ([2]; sc, 10 mg/kg, Subcutaneous (Dose: 10 mg/kg), two compartment model, read-out: T1/2α (distribution half-life) (converted)) was 1.66 ± 0.65 h, the half-life ([2]; sc, 10 mg/kg, Subcutaneous (Dose: 10 mg/kg), two compartment model, read-out: T1/2β (elimination half-life) (converted)) was 51.5 ± 16.1 h and the “AUC0-∞” value ([2]; Intravenous (Dose: 2 mg/kg), non-compartmental analysis) was 10.3 ± 1 mg/L/h. The “A (coefficient of α-phase)” value [2, 7] was 2.51 ± 0.56 mg/L, the “AUC0-∞” value [2, 7] was 15.7 ± 1.96 mg/L/h and the “B (coefficient of β-phase)” value [2, 7] was 0.09 ± 0.01 mg/L. The “AUC0-∞” value [2, 8] was 4.73 ± 0.97^a mg/L/hr, the “Cl- (total body clearance)” value [2, 8] was 4.72 ± 1.20 L/kg/h and the “VD (volume of distribution)” value [2, 8] was 63.9 ± 34.3 L/kg. For the same compound, the “Fabs (absolute bioavailability)” value ([2]; Oral (Dose: 20 mg/kg), non-compartmental analysis, 20 mg/kg) was 4.59 ± 1.33%, the “A (coefficient of α-phase)” value [2, 9] was 4.29 ± 0.42 mg/L and the “AUC0-∞” value [2, 9] was 4.27 ± 1.69 mg/L/h. For the same compound, the “B (coefficient of β-phase)” value [2, 9] was 0.37 ± 0.24 mg/L, the “Cl (total body clearance)” value [2, 9] was 92.3 ± 36.3 mL/min/kg and the “VD (volume of distribution)” value [2, 9] was 34.8 ± 21.8 L/kg. The “AUC0-∞” value [2, 10] was 8.14 ± 0.23^c mg/L/hr, the “Cl- (total body clearance)” value [2, 10] was 1.23 ± 0.04^c L/kg/hr and the “VD (volume of distribution)” value [2, 10] was 65.0 ± 3.77^c L/kg. The “A (coefficient of α-phase)” value [2, 11] was 2.05 ± 0.57 mg/L, the “AUC0-∞” value [2, 11] was 8.68 ± 0.92 mg/L/h and the “B (coefficient of β-phase)” value [2, 11] was 0.08 ± 0.02 mg/L. For the same compound, the “Cl (total body clearance)” value [2, 11] was 19.5 ± 2 mL/min/kg and the “VD (volume of distribution)” value [2, 11] was 45.8 ± 5.95 L/kg.
